Legend:
[1] = system: HepG2 cells derived from human liver cancer; assay: EPO production in HepG2 cells (EPO ELISA of culture supernatant); assay type: cell-based; settings: Homo sapiens; for activity at 3 µM: HepG2, 3 μM test compound, 48 hrs, 4% oxygen, non-stimulated state without compound = 100%, read-out: amount of EPO production, % of control (3 μM); for activity at 10 µM: HepG2, 48 h, final concentration 10 μM, non-stimulated state = 100%, read-out: enhancement of EPO production
Method: HepG2 cells derived from human liver cancer were inoculated in an amount of 5×10^4 cells per well on a 48-well plate, using minimum essential medium (MEM, Sigma-Aldrich Company) containing 10% bovine fetal serum. On the next day, the medium was exchanged with Dulbecco's modified eagle medium (DMEM (Sigma-Aldrich Company)) containing 10% bovine fetal serum without Phenol Red. Then, a test compound dissolved in DMSO was added thereto to obtain a final concentration of 3 μM or 10 μM, and the amount of medium was adjusted to 400 μL per well. The cells were incubated for 48 hrs in a CO2 incubator in which the oxygen concentration was adjusted to 4%, and then the culture supernatant was collected. The EPO concentration in the culture supernatant was immediately measured using an EPO ELISA kit (Roche Diagnostics GmbH). The method was carried out according to the operation manual.
The amount of EPO production in a non-stimulated state where no compounds were added, was designated as 100%, and the amount of EPO production (% of control) induced by each of the compounds was determined.

[2] = system: K562 cells, a human proerythroblast cell line; assay: Hemoglobin production in K562 cells (fluorescence of the porphyrin ring); assay type: cell-based; settings: Homo sapiens, K562, 144 h; 6 μM test compound, 3 + 3 days incubation; non-stimulated state without compound = 100; read-out: amount of hemoglobin, % of control (6 μM)
Method: K562 cells (obtained from ATCC), which is a human proerythroblast cell line, were inoculated at a concentration of 1×10^5 cells/1 mL in each well of a 24-well plate, using complete medium (RPMI-1640 medium containing 10% bovine fetal serum), and 1 μL of a test compound at a 1000-fold concentration was added to each well. Subsequently, the cells were incubated for 3 days in a CO2 incubator (37° C., 5% CO2). The medium was exchanged, and the cells were further incubated for 3 days. The cells were collected and counted. Subsequently, the amount of hemoglobin produced in the cells was determined by adjusting the number of cells to 3×10^5 cells, and measuring the fluorescence of the porphyrin ring. That is, the cells collected by centrifugation were suspended in 500 μL of 2 M oxalic acid, and were heated to boil for 30 minutes. The cells were cooled, and then the fluorescence intensity was measured by using a fluorescence microplate reader (Spectra MAX GeminiEM; Molecular Devices Corp.) ([…]). The amount of hemoglobin in a non-stimulated state where no compound was added was designated as 100-, and the amount of hemoglobin (% of control) produced as induced by each of the compounds was determined.

Row | SMILES | activity at 3 µM [1] [%] | activity at 6 µM [2] [%] | activity at 10 µM [1] [%]
1 | CC(=O)NC(=O)c1ccc2c(c1)C(Nc1ccc(N3CCOCC3)cc1)CC(C)N2C(C)=O (stereo not shown) [Compound 175, N,1-diacetyl-2-methyl-4-[(4-morpholinophenyl)amino]-1,2,3,4-tetrahydroquinoline-6-carboxamide] | 270 | 275 | 
2 | CC(=O)N1c2ccc(C(N)=O)cc2C(Nc2ccc(-c3cnns3)cc2)CC1C (stereo not shown) [Compound 173, 1-Acetyl-2-methyl-4-{[4-(1,2,3-thiadiazol-5-yl)-phenyl]amino}-1,2,3,4-tetrahydroquinoline-6-carboxamide] | 323 | 158 | 
3 | CNC(=O)c1ccc2c(c1)C(Nc1ccc(-c3csc(C)n3)cc1)CC(C)N2C(C)=O (stereo not shown) [Compound 165, 1-Acetyl-N,2-dimethyl-4-{[4-(2-methylthiazol-4-yl)phenyl]amino}-1,2,3,4-tetrahydroquinoline-6-carboxamide] |  | 304 | 159
4 | CC(=O)N1c2ccc(C(=O)NC#N)cc2C(Nc2ccc(Cl)cc2)CC1C (stereo not shown) [Compound 128, 1-Acetyl-4-[(4-chlorophenyl)-amino]-N-cyano-2-methyl-1,2,3,4-tetrahydroquinoline-6-carboxamide] | 176 | 120 | 
5 | CCOC(=O)c1ccc2c(c1)C(Nc1ccc(-c3cnns3)cc1)CC(C)N2C(C)=O (stereo not shown) [Compound 171, Ethyl 1-Acetyl-2-methyl-4-{[4-(1,2,3-thiadiazol-5-yl)-phenyl]amino}-1,2,3,4-tetrahydroquinoline-6-carboxylate] | 333 | 243 | 
6 | CC(=O)N1c2ccc(C(=O)O)cc2C(Nc2ccc(-c3ncco3)cc2)CC1C (stereo not shown) [Compound 168, 1-Acetyl-2-methyl-4-{[4-(oxazol-2-yl)phenyl]-amino}-1,2,3,4-tetrahydroquinoline-6-carboxylic acid] | 144 | 204 | 
7 | CCOC(=O)c1ccc2c(c1)C(Nc1ccc(-c3csc(C)n3)cc1)CC(C)N2C(C)=O (stereo not shown) [Compound 162, Ethyl 1-Acetyl-2-methyl-4-{[4-(2-methylthiazol-4-yl)-phenyl]amino}-1,2,3,4-tetrahydroquinoline-6-carboxylate] | 284 | 316 | 
8 | CC(=O)N1c2ccc(C(=O)O)cc2C(Nc2ccc(-c3csc(C)n3)cc2)CC1C (stereo not shown) [Compound 163, 1-Acetyl-2-methyl-4-{[4-(2-methylthiazol-4-yl)-phenyl]amino}-1,2,3,4-tetrahydroquinoline-6-carboxylic acid] | 128 | 172 | 
9 | CC(=O)N1c2ccc(C(=O)NO)cc2C(Nc2ccc(Cl)cc2)CC1C (stereo not shown) [Compound 129, 1-Acetyl-4-[(4-chlorophenyl)-amino]-N-hydroxy-2-methyl-1,2,3,4-tetrahydroquinoline-6-carboxamide] | 125 | 136 | 
10 | CNC(=O)c1ccc2c(c1)C(Nc1ccc(C3CCCCC3)cc1)CC(C)N2C(C)=O (stereo not shown) [Compound 146, 1-Acetyl-4-[(4-cyclohexylphenyl)-amino]-N,2-dimethyl-1,2,3,4-tetrahydroquinoline-6-carboxamide] | 152 | 208 | 
11 | CC(=O)N1c2ccc(C(=O)NN)cc2C(Nc2ccc(N3CCOCC3)cc2)CC1C (stereo not shown) [Compound 133, 1-Acetyl-4-[(4-morpholinophenyl)-amino]-2-methyl-1,2,3,4-tetrahydroquinoline-6-carbohydrazide] | 113 | 136 | 
12 | CC(=O)N1c2ccc(C(=O)O)cc2C(Nc2cccc(N3CCOCC3)c2)CC1C (stereo not shown) [Compound 179, 1-Acetyl-2-methyl-4-[(3-morpholinophenyl)-amino]-1,2,3,4-tetrahydroquinoline-6-carboxylic acid] | 138 | 124 | 
13 | CC(=O)N1c2ccc(C(=O)O)cc2C(Nc2ccc(C3CCCCC3)cc2)CC1C (stereo not shown) [Compound 145, 1-Acetyl-4-[(4-cyclohexylphenyl)-amino]-2-methyl-1,2,3,4-tetrahydroquinoline-6-carboxylic acid] |  | 414 | 157
14 | CC(=O)N1c2ccc(F)cc2C(Nc2ccc(C(=O)O)cc2)CC1C (stereo not shown) [Compound 137, 1-Acetyl-6-fluoro-4-[(4-carboxy-phenyl)amino]-2-methyl-1,2,3,4-tetrahydroquinoline] | 110 | 190 | 
15 | CC(=O)N1c2ccc(C(=O)Nc3ccccc3)cc2C(Nc2ccc(Cl)cc2)CC1C (stereo not shown) [Compound 130, 1-Acetyl-4-[(4-chlorophenyl)-amino]-2-methyl-N-phenyl-1,2,3,4-tetrahydroquinoline-6-carboxamide] | 133 | 172 | 
16 | CC(=O)N1c2ccccc2C(Nc2ccc3ocnc3c2)CC1C (stereo not shown) [Compound 136, 1-Acetyl-4-[(benzoxazol-5-yl)-amino]-2-methyl-1,2,3,4-tetrahydroquinoline] | 141 | 136 | 
17 | COC(=O)CCCc1ccc(NC(=O)c2ccc3c(c2)C(Nc2ccc(N4CCOCC4)cc2)CC(C)N3C(C)=O)cc1 (stereo not shown) [Compound 151, Methyl 4-(4-{1-Acetyl-2-methyl-4-[(4-morpholinophenyl)-amino]-1,2,3,4-tetrahydroquinoline-6-carboxamido}-phenyl)butanoate] | 110 | 341 | 
18 | CC(=O)N1c2ccc(C(N)=O)cc2C(Nc2ccc(-c3ncco3)cc2)CC1C (stereo not shown) [Compound 169, 1-Acetyl-2-methyl-4-{[4-(oxazol-2-yl)phenyl]amino}-1,2,3,4-tetrahydroquinoline-6-carboxamide] |  | 243 | 120
19 | CC(=O)N1c2ccc(C(N)=O)cc2C(Nc2cccc(N3CCOCC3)c2)CC1C (stereo not shown) [Compound 181, 1-Acetyl-2-methyl-4-[(3-morpholinophenyl)amino]-1,2,3,4-tetrahydroquinoline-6-carboxamide] | 162 | 382 | 
20 | CC(=O)N1c2ccc(C(=O)O)cc2C(Nc2ccc(C3CCOCC3)cc2)CC1C (stereo not shown) [Compound 154, 1-Acetyl-2-methyl-4-{[4-(tetrahydro-2H-pyran-4-yl)-phenyl]amino}-1,2,3,4-tetrahydroquinoline-6-carboxylic acid] | 116 | 320 | 
21 | CC(=O)N1c2ccc(-c3n[nH]c(=O)o3)cc2C(Nc2ccc(N3CCOCC3)cc2)CC1C (stereo not shown) [Compound 134, 1-Acetyl-4-[(4-morpholinophenyl)-amino]-2-methyl-6-[1,3,4-oxadiazol-2(3H)-on-5-yl]-1,2,3,4-tetrahydroquinoline] | 157 | 298 | 
22 | CC(=O)N1c2ccc(N3CCN(S(C)(=O)=O)CC3)cc2C(Nc2ccc(N3CCOCC3)cc2)CC1C (stereo not shown) [Compound 160, 1-Acetyl-2-methyl-6-[4-(methylsulfonyl)piperazin-1-yl]-4-[(4-morpholino-phenyl)amino]-1,2,3,4-tetrahydroquinoline] | 190 | 259 | 
23 | CNC(=O)c1ccc2c(c1)C(Nc1ccc(-c3cnns3)cc1)CC(C)N2C(C)=O (stereo not shown) [Compound 174, 1-Acetyl-N,2-dimethyl-4-{[4-(1,2,3-thiadiazol-5-yl)-phenyl]amino}-1,2,3,4-tetrahydroquinoline-6-carboxamide] | 218 | 163 | 
24 | CC(=O)N1c2ccc(C(=O)Nc3cccnc3)cc2C(Nc2ccc(Cl)cc2)CC1C (stereo not shown) [Compound 131, 1-Acetyl-4-[(4-chlorophenyl)-amino]-2-methyl-N-(3-pyridyl)-1,2,3,4-tetrahydroquinoline-6-carboxamide] | 153 | 263 | 
25 | CCOC(=O)c1ccc2c(c1)C(Nc1ccc(-c3ncco3)cc1)CC(C)N2C(C)=O (stereo not shown) [Compound 167, Ethyl 1-Acetyl-2-methyl-4-{[4-(oxazol-2-yl)phenyl]-amino}-1,2,3,4-tetrahydroquinoline-6-carboxylate] |  | 227 | 142
26 | CC(=O)N1c2ccc(C(=O)Nc3ccccn3)cc2C(Nc2ccc(N3CCOCC3)cc2)CC1C (stereo not shown) [Compound 177, 1-Acetyl-2-methyl-4-[(4-morpholinophenyl)-amino]-N-(pyridin-2-yl)-1,2,3,4-tetrahydroquinoline-6-carboxamide] | 265 | 353 | 
